Tested on: DPP synthetase
Assay: Substrate specificity of the DPP synthetase on various allylic primers ([14C]IPP incorporation)
Format: biochemical, Paracoccus denitrificans
Conditions: for Enzyme Activity: allylic primer 25 μM, [14C]IPP 125 μM, 37° C., 1 hour; for Activity of the DPP synthetase with the allylic substrate (in words): substance used as allylic primer substrate
Experimental: A 200 μl reaction solution shown below was prepared using an appropriate amount of the crude enzyme extract, various allylic primers and [^1-14C]IPP (54 or 57 Ci/mol; Amersham).
The solution was incubated at 37° C. for 1 hour to allow an enzyme reaction. Then, 200 μl of saturated aqueous NaCl solution and 1 ml of n-BuOH saturated with saturated aqueous NaCl solution were added thereto and agitated well. The resultant solution was centrifuged to extract the reaction products. 200 μl of the BuOH layer was collected, and 3 ml of Clear Sol was added thereto. Then, the enzyme activity was determined by measuring the radioactivity in the BuOH extract with a liquid scintillation counter. The enzyme activity was expressed in unit, one unit being the amount of IPP (nmol) taken into the reaction products per 1 minute.
The substrate specificity of this DPP synthetase has been examined on various allyl primers. The unit of enzyme activity is as defined above.

Compound	Enzyme Activity (+Triton X-100 (0.5%))	Activity of the DPP synthetase with the allylic substrate (in words)	Enzyme Activity (−Triton X-100)
CC(C)=CCC/C(C)=C/CC/C(C)=C/CC/C(C)=C\COP(=O)(O)OP(=O)(O)O [ZEE-GGPP, ZEE-geranylgeranyl diphosphate]	3.68 ×10^−3 unit	little activity	2.47 ×10^−3 unit
CC(C)=CCC/C(C)=C/CC/C(C)=C/CC/C(C)=C/COP(=O)(O)OP(=O)(O)O [EEE-GGPP, EEE-geranylgeranyl diphosphate]	35.33 ×10^−3 unit	strong activity	3.22 ×10^−3 unit
CC(C)=CCC/C(C)=C/COP(=O)(O)OP(=O)(O)O [GPP, geranyl diphosphate]	19.8 ×10^−3 unit	slight activity	1.78 ×10^−3 unit

Source: patent US6413761B2, “Decaprenyl diphosphate synthetase gene” (Toyota Jidosha Kabushiki Kaisha, priority 1997, dated 2002)
